{"source": "patent US4103004A", "about": "“Cardiotonic agent” (University of Hawaii, priority 1977, dated 1978)", "key": {"[1]": {"test_system": "isolated rat atria", "test": "Bioassay for positive inotropic effect on isolated rat atria", "type": "cell-based", "procedure": "Bioassay for Determining Positive Inotropic Effect\nBioassays of the solutions containing anthopleurin-C are performed on isolated atria of rat hearts. The atrium is separated from the rest of the heart and suspended in an isolated organ bath (20, 25, or 50 ml.) containing Krebs Ringer bicarbonate medium (pH 7.4) of the following composition in distilled deionized water (in mmoles): Na^+, 145; K^+, 6.02; Ca^+2, 1.22; Mg^+2, 1.33; Cl^-, 126; HCO3^-, 25.3; PO4^-3, 1.2; SO4^-2, 1.33; and glucose, 5.5. The temperature of the organ bath is maintained at 30° C., and the Krebs-Ringer medium is continuously aerated with 95% O2 --5% CO2.\nThe spontaneously beating atrial preparation is connected by a thin silk thread to a force-displacement transducer (Grass model FT.03), and the contractile movements are recorded on a six-channel polygraph Grass Model 7. The preparation is allowed to equilibrate under 750 mg. tension for 60 minutes prior to beginning an assay. After this equilibration, during which the preparations are washed out every 30 minutes, the spontaneous beat rate of the atria remains constant; the change during a 10-minute observation being less than 5 beats/min. The changes in contractile force and rate produced by the test solution containing anthopleurin-C is expressed as a percentage increase or decrease in tension and rhythm, with the period immediately preceding addition of test solution to the tissue bath as the baseline for comparison."}, "[2]": {"test": "Solubility in deionized water", "type": "physicochemical"}, "[3]": {"test": "Stability at neutral and lower pH", "type": "physicochemical", "conditions": "neutral and lower pH values"}, "[4]": {"test": "Isoelectric focusing", "type": "physicochemical", "conditions": "doubly purified material", "text": "For the purpose of obtaining electrophoretic properties, the anthopleurin-Cobtained in Example 1, Steps a through d below, was rechromatographed on CM Sephadex C-25, and G-10 according to the process set forth in Example 1, Steps c, and d, respectively. The doubly purified material was subjected to electrophoretic analysis using commercially available pre-cast 12% acrylamide gels and matched buffer systems obtained from Bio·Rad Laboratories, 32nd and Griffin, Richmond, California.\nIsoelectric focusing gave the isoelectric point at a pH = 8.0. Disc gel electrophoresis with 12% polyacrylamide gel at pH 3.6 gave an Rf value of 0.49 versus methyl green tracking dye. […] Sodium dodecyl sulfate (SDS) disc gel electrophoresis using a 10% gel indicated a m.w. of about 5,200 after incubation with dithioerythritol, using RNase A and pancreatic trypsin inhibitor (PTI) for comparison. The molecular weight is so low that these values are only approximate."}}}
{"substance": "anthopleurin-C", "values": [{"measurement": "potency relative to ouabain in positive inotropic effect", "setting": "[1]; fold as potent as ouabain", "value": "200-1000 x"}, {"measurement": "ED50, positive inotropic effect", "setting": "[1]; isolated rat atria", "value": 3, "unit": "nM"}, {"measurement": "chronotropic effect", "setting": "[1]; isolated rat atria", "value": "does not show any chronotropic effect"}, {"measurement": "solubility", "setting": "[2]", "value": "very soluble"}, {"measurement": "stability", "setting": "[3]", "value": "relatively stable"}, {"measurement": "isoelectric point", "setting": "[4]", "value": 8.0, "unit": "pH"}]}
